Reference: publication PMC4314633, “Homo-β-amino acid containing MBP(85–99) analogs alleviate experimental autoimmune encephalomyelitis” (Scientific Reports, 2015)
Where a SMILES comes first, the peptide text is derived from it. [ ]: non-standard residue; d: D form. ξ: configuration not given here. ξβ3hE = NC(CCC(=O)O)CC(=O)O; ξβ3hK = NCCCCC(N)CC(=O)O; ξβ3hA = CC(N)CC(=O)O

How the values were obtained:
α-chymotrypsin = α-chymotrypsin (Bos taurus, UniProt P00766); experiment: Proteolysis assay with chymotrypsin, RP-HPLC; type: in vitro ADME; settings: chymotrypsin 0.1 μg/ml, peptide 1 mg/ml, PBS with 0.01% sodium azide, 37°C
Description: Aliquots were drawn at various time points and analyzed by high pressure liquid chromatography (HPLC, Shimadzu). Degradation mixtures were resolved on a C18 column (Phenomenix) using acetonitrile/water with 0.1% trifluroacetic acid (TFA) as a solvent system at a flow rate of 0.4 ml/minute. Analogs un-cleaved in the reaction mixture were quantified in terms of percent peak area. […] Aliquots were drawn and analyzed on a polyacrylamide gel (15%).

[1] = test system: experimental autoimmune encephalomyelitis in SJL/J mice; experiment: EAE treatment setup in SJL/J mice; type: in vivo, mouse; settings: treatment: 100 μg subcutaneously daily for a week
Description: Animals were perfused intra-cardially with ice cold PBS and 4% paraformaldehyde (PFA) sequentially under deep anesthesia. Thereafter intact spinal cord tissue was dissected out, equilibrated with 30% sucrose and embedded in tissue freezing media (Polyfreez, Polysciences). Subsequently, transverse sections (15 μM thick) were cut through lumbar region in a cryotome (Thermo) and collected in storage buffer (30% glycerol and ethylene glycol in PBS). Sections were retrieved from storage buffer, transferred into citrate buffer (10 mM, pH 6.0) and incubated at 65°C for 30 minutes for antigen retrieval. After 30 minute incubation period, sections were equilibrated with PBS and blocked using 3% bovine serum albumin and 1% normal serum for 2 hours at room temperature. […]

[2] = test system: experimental autoimmune encephalomyelitis in SJL/J mice; experiment: EAE prevention (pre-treatment) setup in SJL/J mice; type: in vivo, mouse; settings: prevention: 400 μg in IFA a week prior to immunization with MBP(85–99)
Description: EAE was induced and assessed as described previously. SJL/J (female; 6–8 week old) were injected subcutaneously with 100 μg of MBP(85–99) (two immunizations spaced a week apart) emulsified in complete Freund's adjuvant (CFA). Immunized mice were also given an intra-peritoneal injection of pertussis toxin (200 ng) on day 0 and 2. Severity of clinical disability was scored on a scale of 0 to 5, where, 0, no detectable signs of EAE; 1, complete tail paralysis; 2, wobbly gait; 3, complete hind limb paralysis; 4, complete hind and fore limb paralysis or moribund; 5, dead.

RRMS = settings: cited from earlier work
From the text: However, therapeutic potencies of such antigen-specific modalities has always been moderate due to their peptidic nature e.g. in the case of GA it is only 20–30 percent. Expectedly, it is their minimal stability in proteolytic milieu and thus inefficient presentation on antigen presenting cells (APCs) which perhaps gets translated into their reduced efficacy.

CC(C)[C@H](NC(=O)[C@H](CCCCN)NC(=O)[C@@H]1CCCN1C(=O)[C@H](CCCCN)NC(=O)[C@@H](N)CCC(=O)O)C(=O)N[C@@H](CCC(=O)O)C(=O)N[C@@H](C)C(=O)N[C@@H](Cc1ccc(O)cc1)C(=O)N[C@@H](CCCCN)C(=O)N[C@@H](C)C(=O)N[C@@H](C)C(=O)N[C@@H](C)C(=O)N[C@@H](C)C(=O)N1CCC[C@H]1C(=O)N[C@@H](C)C(=O)O [J5]
percent hydrolyzed (α-chymotrypsin; in 6 hours, RP-HPLC percent peak area): > 50%

CC(CC(=O)O)NC(=O)CC(C)NC(=O)CC(C)NC(=O)CC(C)NC(=O)CC(CCCCN)NC(=O)[C@H](Cc1ccc(O)cc1)NC(=O)[C@H](C)NC(=O)[C@H](CCC(=O)O)NC(=O)[C@@H](NC(=O)[C@H](CCCCN)NC(=O)[C@@H]1CCCN1C(=O)CC(CCCCN)NC(=O)CC(N)CCC(=O)O)C(C)C (stereo partly drawn) [S18] (H-[ξβ3hE][ξβ3hK]PKVEAY[ξβ3hK][ξβ3hA][ξβ3hA][ξβ3hA][ξβ3hA]-OH)
time up to which detectable in the reaction mixture (α-chymotrypsin; RP-HPLC): ≤ 2 days
percent remaining intact in reaction mixture (α-chymotrypsin; after 12 hours, RP-HPLC percent peak area, n ≥ 3): > 90%

glatiramer acetate [GA]
duration of therapeutic effect post-treatment [1]: ~ 1.7 weeks
reduction of disease severity (cumulative disability score) [1]: 30–35%
reduction of disease severity (cumulative disability score) [2]: 40–50%
therapeutic potency (RRMS): 20–30%
